From patent publication US6180637A, “1,2,5-trisubstituted 1,2-dihydroindazol-3-ones having anti-asthmatic, anti-allergic, anti-inflammatory, immunomodulating and neuroprotective action, process for their preparation and their use as medicaments” (Arzneimittelwerk Dresden GmbH, priority 1998, dated 2001)
Each block holds one molecule with its values, some of them ahead of it.

Columns and labels:
human cyclophilin B = human cyclophilin B (Homo sapiens, UniProt P23284); assay: Peptidylprolyl isomerase (PPIase) activity inhibition assay; assay type: biochemical; details: 10 μM compound; 10 nmol Cyp B, preincubated at 4° C. for 15 minutes; test peptide Suc-Ala-Ala-Pro-Phe-Nan
Experimental: For the initial screening (10 μmol/l), the inhibition of the human cyclophilin B in the PPIase test is determined.
Assay for the determination of the peptidylprolyl isomerase (PPIase) activity and inhibition
The PPIase activity is tested according to a globally customary enzyme test: G. Fischer, H. Bang, C. Mech, Biomed. Biochim. Acta 43 1101-1111; G. Fischer, H. Bang, A. Schellenberger, Biochim. Biophys. Acta 791 (1984), 87-97; D. H. Rich et al., J. Med. Chem. 38 (1995), 4164-4170.
The compounds of the general formula I according to the invention are preincubated at 4° C. for 15 minutes together with 10 nmol of Cyp B. The enzyme reaction is started using the test peptide Suc-Ala-Ala-Pro-Phe-Nan after addition of chymotrypsin and HEPES buffer. The extinction change at 390 nm is then monitored and evaluated. The photometrically determined extinction change results from two sub-reactions: a) the rapid chymotryptic cleavage of the trans-peptide; b) the non-enzymatic cis-trans isomerization, which is catalysed by cyclophilins.

[1] = tested on: pulmonary eosinophil infiltration; assay: Inhibition of late-phase eosinophilia 24 h after inhalational ovalbumin challenge in actively sensitized guinea-pigs; assay type: in vivo, guinea-pig; details: 2 × 30 mg/kg i.p. -2h/+4h, BAL 24 h after OVA challenge
Experimental: Inhibition of late-phase eosinophilia 24 h after inhalational ovalbumin challenge in actively sensitized guinea-pigs
The inhibition of pulmonary eosinophil infiltration by the substances is tested in an in vivo test on male Dunkin-Hartley guinea-pigs (200-250 g) sensitized against ovalbumin (OVA). The sensitization is carried out by means of two intraperitoneal injections of a suspension of 20 μg of OVA together with 20 mg of aluminium hydroxide as an adjuvant in 0.5 ml of physiological saline solution per animal on two successive days. 14 days after the second injection, the animals are pretreated with mepyramine maleate (10 mg/kg i.p.) in order to protect them from anaphylactic death. 30 minutes later, the animals are exposed for 30 sec in a plastic box to an OVA aerosol (0.5 mg/ml) which is generated by a nebulizer driven by compressed air (19.6 kPa) (allergen challenge). Control animals are nebulized with physiological saline solution. […] The eosinophils are stained using the Becton-Dickinson test kit (N. 5877) for eosinophils and counted in a Neubauer chamber. […]
The percentage inhibition of the eosinophilia of the test group treated with substance is calculated according to the following formula: […]

Chain of human cyclophilin B (P23284 34-216): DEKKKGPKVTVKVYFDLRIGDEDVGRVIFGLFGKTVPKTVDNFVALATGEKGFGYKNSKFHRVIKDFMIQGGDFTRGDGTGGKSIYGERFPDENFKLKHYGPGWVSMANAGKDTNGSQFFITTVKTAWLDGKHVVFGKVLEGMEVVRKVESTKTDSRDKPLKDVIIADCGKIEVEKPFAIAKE

Compound: COc1ccc(S(=O)(=O)n2c3ccc(OC)cc3c(=O)n2Cc2cc([N+](=O)[O-])ccc2O)cc1 [Example 1, 2-(2-Hydroxy-5-nitrobenzyl)-5-methoxy-1-(4-methoxybenzenesulphonyl)-1,2-dihydroindazol-3-one]
inhibition at 10 µM (human cyclophilin B): 70%
Inhibition [%] of eosinophilia ([1]; OVA-sensitized guinea-pigs): 97%
Eosinophils million/animal x ± s, B ([1]; group B (test group treated with substance)): 0.51 ± 0.25 million/animal

Compound: COc1ccc2c(c1)c(=O)n(Cc1cc([N+](=O)[O-])ccc1O)n2S(=O)(=O)c1ccc(C)cc1 [Example 2, 2-(2-hydroxy-5-nitrobenzyl)-5-methoxy-1-(toluene-4-sulphonyl)-1,2-dihydroindazol-3-one]
inhibition at 10 µM (human cyclophilin B): 50%

Compound: COc1ccc2c(c1)c(=O)n(Cc1cc([N+](=O)[O-])ccc1O)n2S(=O)(=O)c1ccc(Cl)cc1 [Example 4, 2-(2-hydroxy-5-nitrobenzyl)-5-methoxy-1-(4-chloro-benzenesulphonyl)-1,2-dihydroindazol-3-one]
inhibition at 10 µM (human cyclophilin B): 90%

Compound: COc1ccc2c(c1)c(=O)n(Cc1cc([N+](=O)[O-])ccc1O)n2S(=O)(=O)c1ccc(F)cc1 [Example 5, 1-(4-fluorobenzenesulphonyl)-2-(2-hydroxy-5-nitrobenzyl)-5-methoxy-1,2-dihydroindazol-3-one]
inhibition at 10 µM (human cyclophilin B): 67%

Continued, values first:

inhibition at 10 µM (human cyclophilin B): 93%
Compound: COc1ccc2c(c1)c(=O)n(Cc1cc([N+](=O)[O-])ccc1O)n2S(=O)(=O)c1ccc(OC(F)(F)F)cc1 [Example 3, 2-(2-hydroxy-5-nitrobenzyl)-5-methoxy-1-(4-trifluoro-methoxybenzenesulphonyl)-1,2-dihydroindazol-3-one]

inhibition at 10 µM (human cyclophilin B): 98%
Compound: CSc1ccc2c(c1)c(=O)n(Cc1cc([N+](=O)[O-])ccc1O)n2Cc1ccc(Cl)c(Cl)c1 [Example 26, 1-(3,4-Dichlorobenzyl)-2-(2-hydroxy-5-nitrobenzyl)-5-methylthio-1,2-dihydroindazol-3-one hydrate]
